Assay [1] deals with T1, Muscarinic acetylcholine receptor M1 (Mus musculus, UniProt P12657).
T1 sequence (P12657 whole entry): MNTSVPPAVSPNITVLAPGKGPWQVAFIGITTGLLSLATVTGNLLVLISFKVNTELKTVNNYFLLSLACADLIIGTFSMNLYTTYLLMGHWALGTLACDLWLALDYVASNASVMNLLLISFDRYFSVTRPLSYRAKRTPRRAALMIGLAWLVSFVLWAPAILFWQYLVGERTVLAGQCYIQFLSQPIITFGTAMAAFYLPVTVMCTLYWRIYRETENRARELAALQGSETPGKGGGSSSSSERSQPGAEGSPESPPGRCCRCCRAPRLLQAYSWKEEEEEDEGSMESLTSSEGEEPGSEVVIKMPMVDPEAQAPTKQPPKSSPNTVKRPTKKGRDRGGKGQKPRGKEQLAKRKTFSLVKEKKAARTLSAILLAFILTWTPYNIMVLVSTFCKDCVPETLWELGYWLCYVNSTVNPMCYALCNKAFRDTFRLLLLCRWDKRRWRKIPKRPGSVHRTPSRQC
Description: Tested against Muscarinic acetylcholine receptor M1 expressed in A9 L cell line

The next assay relates to A9. As to the kind of experiment: cells. The settings on record: Mus musculus, A9L.
The target in assay [2] is Muscarinic acetylcholine receptor M3 (Mus musculus, UniProt Q9ERZ3).
Description: Tested against Muscarinic acetylcholine receptor M3 expressed in A9 L cell line
The target in assay [3] is T1, Muscarinic acetylcholine receptor M1. In words: biochemical.
Assay [4] has the same target. In words: biochemical. The source holds these as a separate data set.
The target is the same in assay [5]. As to the kind of experiment: biochemical. This is another data set of the same source.
The next assay is filed under the species Rattus norvegicus. As to the kind of experiment: Tested for agonist activity through assays of phosphoinositide (PI) metabolism in slices from rat cerebral cortex at 100 uM. Format: functional.

The term EC50 denotes the concentration needed to bring the measured effect to its halfway point. High values mean lower potency in that assay, low ones higher potency in that assay. One may read the IC50 as the point on the concentration scale where inhibition reaches its midpoint. What is called Ki is the dissociation constant of the complex between target and ligand, obtained from inhibition or displacement. Lower therefore signals tighter binding.

Chain of Muscarinic acetylcholine receptor M3 (Q9ERZ3 whole entry): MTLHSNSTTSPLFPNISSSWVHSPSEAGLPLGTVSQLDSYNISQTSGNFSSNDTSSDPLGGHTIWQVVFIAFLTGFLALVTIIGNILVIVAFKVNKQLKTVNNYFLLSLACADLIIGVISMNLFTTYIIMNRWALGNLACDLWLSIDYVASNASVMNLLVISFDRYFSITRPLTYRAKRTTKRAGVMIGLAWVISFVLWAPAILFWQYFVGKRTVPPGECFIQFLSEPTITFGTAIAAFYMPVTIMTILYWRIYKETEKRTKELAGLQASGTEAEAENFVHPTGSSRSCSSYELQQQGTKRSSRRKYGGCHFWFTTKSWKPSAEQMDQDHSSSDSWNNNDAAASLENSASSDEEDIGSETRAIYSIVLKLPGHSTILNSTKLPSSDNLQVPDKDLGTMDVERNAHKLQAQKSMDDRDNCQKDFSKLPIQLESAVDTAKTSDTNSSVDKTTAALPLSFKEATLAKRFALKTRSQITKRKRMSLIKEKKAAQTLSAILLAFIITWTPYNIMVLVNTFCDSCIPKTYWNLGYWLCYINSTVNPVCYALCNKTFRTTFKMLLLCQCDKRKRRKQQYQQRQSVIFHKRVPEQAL
Description for A9: Inhibition of Forskolin-Induced cAMP production in A9 L cells expressing m2 receptors

Compound `COC(=O)C1CN=C(N)NC1` (configuration not stated) registered a concentration for a half-maximal effect (EC50) in assay [1] of 160000 nM.
The same measure, in the same setting: with `C#CCOC(=O)C1CN=C(N)NC1` (configuration not stated) the figure was 300000 nM.
As for `C#CCOC(=O)C1CCC(N)=NC1` (configuration not stated), the IC50 with A9 was determined as 440 nM. The values for the EC50 in assay [1] and in assay [2] were 116000 nM and 12000 nM, respectively.
`C#C/C(C)=C/COC(=O)C1CN=CNC1` (configuration not stated) displayed a half-maximal effective concentration (EC50) in assay [1] of 80000 nM.
Consider `COC(=O)C1CN=CNC1` (configuration not stated), for which the IC50 in the assay with A9 was 1600 nM. Moreover, the inhibition constant Ki in assay [3] turned out to be 26.8 nM; in assay [4], 359 nM; in assay [5] it was 23.6 nM. In addition, the half-maximal effective concentration (EC50) came to 200000 nM in assay [1] and 50000 nM in assay [2].
Take `CCOC(=O)C1CN=CNC1` (configuration not stated): the EC50 in assay [1] amounted to 44000 nM; in assay [2], 17000 nM.
Compound `O=C1CCCN1CC#CCN1CCCC1` [OXOTREMORINE] displayed an EC50 in assay [1] of 270 nM.
Regarding `C[N+](C)(C)CC#CCN1CCCC1=O` [OXOTREMORINE METHIODIDE], the EC50 in assay [1] is 700 nM.
Turning to `CCCC#Cc1noc(C2CN=CNC2)n1` (configuration not stated), the values for the Ki in assay [4] and in assay [5] were 138 nM and 17.4 nM, respectively.
For the compound `C[N+](C)(C)CCOC(N)=O.[Cl-]` [CARBACHOL], the concentration for half-maximal inhibition (IC50) in the assay on A9 turned out to be 100 nM. In the assay filed under Rattus norvegicus, this compound returned an Activity of 470%. In assay [2], this compound yielded an EC50 of 9900 nM.
Compound `COCc1noc(C2CN=CNC2)n1` (configuration not stated) returned a concentration for a half-maximal effect (EC50) in assay [2] of 11000 nM.
Regarding `CSCc1noc(C2CN=CNC2)n1` (configuration not stated), the results for the concentration for a half-maximal effect (EC50) in assay [1] and in assay [2] were 14000 nM and 5800 nM, respectively.
In the case of `Cc1noc(C2CN=CNC2)n1` (configuration not stated), in the assay with A9, the midpoint of inhibition, the IC50, lay at 110 nM. Also, the values for the inhibition constant Ki in assay [3], in assay [4] and in assay [5] were 2.5 nM, 21.1 nM and 2.31 nM, respectively. Besides, the concentration giving a half-maximal response (EC50) in assay [1] stood at 5400 nM; in assay [2], 1100 nM.
In the case of `CCCCCCOc1nsnc1C1=CCCN(C)C1` [XANOMELINE], the IC50 with A9 was found to be 7000 nM. This compound yielded an EC50 in assay [2] of 11000 nM.
Regarding `Cc1noc(C2=CCCN(C)C2)n1`, the 50% inhibitory concentration (IC50) with A9 stood at 1200 nM. For the same compound, the inhibition constant (Ki) in assay [3] is 1.05 nM; in assay [5], 0.589 nM. Moreover, the results for the EC50 in assay [1] and in assay [2] were 12000 nM and 2800 nM, respectively.
Turning to `COC(=O)C1CCC(N)=NC1` (configuration not stated), the concentration giving a half-maximal response (EC50) turned out to be 41000 nM in assay [1] and 14000 nM in assay [2].
For the compound `CCc1noc(C2CN=CNC2)n1` (configuration not stated), the EC50 is 12000 nM in assay [1] and 10000 nM in assay [2].
In assay [1], `C#CCCOC(=O)C1CN=CNC1` (configuration not stated) displayed an EC50 of 560000 nM. Also, the inhibitory constant (Ki) in assay [4] was 30.9 nM; in assay [5], 15.5 nM.
Turning to `C#CCOC(=O)C1CN=CNC1` (configuration not stated), the IC50 with A9 worked out at 780 nM. For the same compound, the EC50 in assay [1] amounted to 33000 nM; in assay [2], 18000 nM. Besides, the inhibition constant Ki in assay [4] came to 41.7 nM; in assay [5] it was 2.88 nM.
Turning to `CC#CCOC(=O)C1CN=CNC1` (configuration not stated), in assay [1], a half-maximal response (EC50) required 50000 nM. The inhibitory constant (Ki) came out at 14 nM in assay [4] and 9.01 nM in assay [5].

Values taken from ChEMBL document CHEMBL1129993, “Synthesis and biological characterization of 1,4,5,6-tetrahydropyrimidine and 2-amino-3,4,5,6-tetrahydropyridine derivatives as selective m1 agonists” (J Med Chem, 1997).
